Tests used:
[1] = Partition coefficient (logD); conditions: octanol/water
[2] = Inhibition of binding of [3H]strychnine to glycine receptor in rat
[3] = biological target: Glycine receptor (Rattus norvegicus); assay: Inhibition of binding of [3H]strychnine to glycine receptor

SMILES | logP [1] | further results
COc1ccc(-c2[nH]nc(O)c2N)cc1 | 0.85 | 
Oc1coc2cc[nH]c12 | 1.07 | 
Nc1ccccc1O [QUESTIOMYCIN B] | 0.65 | 
Oc1coc2[nH]cnc12 | 0.33 | 
NCC(=O)O [GLYCINE] |  | IC50 [2]: 6 µM
CNCC(=O)O [SARCOSINE] |  | IC50 [2]: 350 µM
Nc1c(C(F)(F)F)n[nH]c1O |  | IC50 [3]: 418 µM
